Broadly, the EC50 is the midpoint of the concentration-response curve.

Data on five compounds can be found in US10189809B2, “SGC stimulators” (Ironwood Pharmaceuticals, Inc., priority 2010, dated 2019).

Experiment [1] concerns the target T1, soluble guanylate cyclase (sGC) (Homo sapiens (Human), UniProt Q02108+Q02153). Briefly: sGC-HEK-cGMP assay run with SNP incubation (HEK WC assay). Format: cell-based. To be noted: for HEK WC Assay (fold increase at 30 μM in the presence of 10 μM SNP): compound at 30 μM; for Emax at 10 µM: read-out: HEK WC Assay (% Emax at 10 μM/with 10 uM SNP); for Emax at 30 µM: read-out: HEK WC Assay (% Emax at 30 μM/with 10 uM SNP); for EC50: in the presence of 10 uM SNP. Put shortly:
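EC50 values derive from concentration-response curves of intracellular cGMP in HEK293 cells, which express sGC endogenously. Compound and sodium nitroprusside were co-incubated 10 min at 37 °C after a 15-min 0.5 mM IBMX step, with 0.1 M HCl lysis and 1% DMSO vehicle.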

Experiment [2] concerns the target T2, Human soluble guanylate cyclase enzyme (hsGC) (Homo sapiens (Human), UniProt Q02108+Q02153). Briefly: Purified human sGC enzyme activity assay. The format is biochemical. To be noted: 30 μM compound, without the addition of SNP. Put shortly: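 Values are fold-change of sGC specific activity, nmoles cGMP per mg enzyme per min, relative to DMSO controls. Reactions: 5 ng human enzyme, 300 μM GTP, 1 mM IBMX, 2 mM MgCl2/DTT, 0.1 M Tris pH 8.0, compound 10 or 30 μM final, 37° C for 30 minutes, methanol quench. cGMP read against a 0.078-10 μM final standard curve.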

In experiment [3] the target is T1, soluble guanylate cyclase (sGC). The experiment is described as follows: sGC-HEK-cGMP assay run in the absence of SNP (HEK WC assay). The format is cell-based. To be noted: compound at 30 μM, absence of SNP. Put shortly:
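Intracellular cGMP was measured by LC/MS, using a standard curve, in HEK293 cells treated with compound for 10 min at 37° C after a 15 min 0.5 mM IBMX pretreatment, with no SNP present. Lysis and quench used 0.1 M HCl. EC50 values came from concentration-response fits.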

In experiment [4] the target is T2, Human soluble guanylate cyclase enzyme (hsGC). Briefly: Purified human sGC enzyme synergy assay in the presence of 1 μM sodium nitroprusside (SNP). The format is biochemical. To be noted: 30 μM compound, with the addition of SNP. Put shortly: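 Fold-change in cGMP-forming specific activity (nmol/mg/min) versus DMSO, with 1 μM SNP present throughout. Reactions held 30 min at 37 °C with 10 or 30 μM compound, 5 ng human sGC, 300 μM GTP, 1 mM IBMX and 2 mM MgCl2 at pH 8.0, then stopped with cold methanol.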

The mark [5] stands for this setting: read-out: HEK WC Assay (% Emax at 10 μM with 10 uM SNP).
[6] abbreviates: read-out: HEK WC Assay (% Emax at 30 μM with 10 uM SNP).
[7] abbreviates: read-out: HEK WC Assay in the presence of 10 uM SNP EC50.

Read-outs that look alike come from different tables or passages of the source.

T1 sequence (Q02153 whole entry): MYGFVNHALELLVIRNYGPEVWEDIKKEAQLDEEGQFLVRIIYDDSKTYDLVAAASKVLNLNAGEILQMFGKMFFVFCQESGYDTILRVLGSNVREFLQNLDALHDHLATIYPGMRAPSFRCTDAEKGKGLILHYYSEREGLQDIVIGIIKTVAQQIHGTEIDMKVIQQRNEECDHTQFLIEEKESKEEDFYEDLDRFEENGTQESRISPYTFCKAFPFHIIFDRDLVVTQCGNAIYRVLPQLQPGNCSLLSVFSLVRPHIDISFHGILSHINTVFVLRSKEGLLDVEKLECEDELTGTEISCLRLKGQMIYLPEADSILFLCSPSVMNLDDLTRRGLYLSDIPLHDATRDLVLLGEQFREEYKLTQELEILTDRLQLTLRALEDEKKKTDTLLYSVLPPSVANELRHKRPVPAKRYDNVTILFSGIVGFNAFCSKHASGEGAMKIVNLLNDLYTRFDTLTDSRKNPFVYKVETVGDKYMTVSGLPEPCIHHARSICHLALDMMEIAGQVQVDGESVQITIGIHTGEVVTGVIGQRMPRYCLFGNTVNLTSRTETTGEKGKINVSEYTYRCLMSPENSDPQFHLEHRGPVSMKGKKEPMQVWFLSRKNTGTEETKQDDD
T1 sequence (Q02108 whole entry): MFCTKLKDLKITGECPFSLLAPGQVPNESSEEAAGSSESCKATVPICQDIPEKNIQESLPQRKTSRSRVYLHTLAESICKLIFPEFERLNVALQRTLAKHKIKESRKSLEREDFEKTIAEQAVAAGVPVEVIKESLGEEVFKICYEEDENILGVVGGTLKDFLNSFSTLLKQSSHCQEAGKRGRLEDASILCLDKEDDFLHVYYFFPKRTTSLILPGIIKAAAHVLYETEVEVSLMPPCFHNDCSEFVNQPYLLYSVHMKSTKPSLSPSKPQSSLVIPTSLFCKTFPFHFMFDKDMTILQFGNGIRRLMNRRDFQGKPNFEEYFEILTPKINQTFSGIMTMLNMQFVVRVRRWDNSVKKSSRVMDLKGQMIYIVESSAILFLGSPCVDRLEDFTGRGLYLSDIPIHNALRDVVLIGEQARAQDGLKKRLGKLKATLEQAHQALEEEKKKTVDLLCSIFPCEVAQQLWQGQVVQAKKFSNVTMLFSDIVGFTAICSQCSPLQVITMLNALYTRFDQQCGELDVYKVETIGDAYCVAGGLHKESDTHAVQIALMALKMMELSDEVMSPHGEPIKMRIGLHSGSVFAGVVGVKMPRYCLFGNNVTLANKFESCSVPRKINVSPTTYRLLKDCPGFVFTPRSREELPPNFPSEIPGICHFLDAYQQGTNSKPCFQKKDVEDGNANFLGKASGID
T2 sequence (Q02153 whole entry): as the sequence (Q02153 whole entry) above
T2 sequence (Q02108 whole entry): as the sequence (Q02108 whole entry) above

With `Nc1cc(C(F)(F)F)nc(-c2cc(-c3ccon3)n(Cc3ccccc3F)n2)n1` [Compound I-117], in experiment [1], the “HEK WC Assay (fold increase at 30 μM in the presence of 10 μM SNP)” value is given as “B (B = 1 to <2 fold increase)”, the Emax at 10 µM lay within 10 to 20% and the Emax at 30 µM is 0 to 10%. Further, the Emax in experiment [1] (setting [5]) fell in the range of 10 to 20%. Besides, in experiment [1] (setting [6]), the Emax lay within 0 to 10%. For the same compound, the “sGC Enzyme (fold increase at 30 μM)” value in experiment [2] is listed as “A (A = no increase to <2 fold increase)”. Further, the “HEK WC Assay (fold increase at 30 μM in the absence of SNP)” value in experiment [3] is “B (B = 1 to <2 fold increase)”. Also, the “sGC Enzyme (fold increase at 30 μM with SNP)” value in experiment [4] was “A (A = no increase to <2 fold increase)”.

As for `C=CCOC1(c2cnc(-c3cc(-c4ccon4)n(Cc4ccccc4F)n3)nc2N)CC1` [Compound I-118, 5-(1-(allyloxy)cyclopropyl)-2-(1-(2-fluorobenzyl)-5-(isoxazol-3-yl)-1H-pyrazol-3-yl)pyrimidin-4-amine], in experiment [1], the “HEK WC Assay (fold increase at 30 μM in the presence of 10 μM SNP)” value was “E (E = 10 to <20 fold increase)”, the Emax at 10 µM was in the range of 60 to 80% and the Emax at 30 µM lay within 40 to 60%. Also, the Emax in experiment [1] (setting [5]) lay in the range of 60 to 80%. Besides, in experiment [1] (setting [6]), the Emax lay within 40 to 60%. The EC50 in experiment [1] (setting [7]) is 60 to 100 µM. In experiment [2], the “sGC Enzyme (fold increase at 30 μM)” value was “C (C = 5 to <10 fold increase)”. Moreover, the “HEK WC Assay (fold increase at 30 μM in the absence of SNP)” value in experiment [3] is “D (D = 5 to <10 fold increase)”. Also, the “sGC Enzyme (fold increase at 30 μM with SNP)” value in experiment [4] is reported as “D (D = 10 to <30 fold increase)”.

Take `Nc1nc(-c2cc(-c3ccon3)n(Cc3ccccc3F)n2)ncc1N=C(c1ccccc1)c1ccccc1` [Compound I-123, N5-(diphenylmethylene)-2-(1-(2-fluorobenzyl)-5-(isoxazol-3-yl)-1H-pyrazol-3-yl)pyrimidine-4,5-diamine]: in experiment [1], the “HEK WC Assay (fold increase at 30 μM in the presence of 10 μM SNP)” value is reported as “C (C = 2 to <5 fold increase)”, the Emax at 10 µM is 10 to 20% and the Emax at 30 µM is 20 to 40%. In addition, the Emax in experiment [1] (setting [5]) fell in the range of 10 to 20%. Besides, the Emax in experiment [1] (setting [6]) was 20 to 40%. Further, the “sGC Enzyme (fold increase at 30 μM)” value in experiment [2] is “A (A = no increase to <2 fold increase)”. In addition, the “HEK WC Assay (fold increase at 30 μM in the absence of SNP)” value in experiment [3] was “B (B = 1 to <2 fold increase)”. Besides, in experiment [4], the “sGC Enzyme (fold increase at 30 μM with SNP)” value is “B (B = 2 to <5 fold increase)”.

Regarding `CC(C)(C)CC(=O)Nc1cnc(-c2cc(-c3ccon3)n(Cc3ccccc3F)n2)nc1N` [Compound I-124], in experiment [1], the “HEK WC Assay (fold increase at 30 μM in the presence of 10 μM SNP)” value is “F (F = 20 to <30 fold increase)”, the EC50 is < 20 µM, the Emax at 10 µM was > 120% and the Emax at 30 µM lay in the range of 60 to 80%. The Emax in experiment [1] (setting [5]) was in the range of 100 to 120%. Besides, the Emax in experiment [1] (setting [6]) lay within 60 to 80%. Moreover, the “sGC Enzyme (fold increase at 30 μM)” value in experiment [2] is on record as “D (D = 10 to <30 fold increase)”. The “HEK WC Assay (fold increase at 30 μM in the absence of SNP)” value in experiment [3] is recorded as “E (E = 10 to <20 fold increase)”. The “sGC Enzyme (fold increase at 30 μM with SNP)” value in experiment [4] was “D (D = 10 to <30 fold increase)”.

With `Nc1nc(-c2cc(-c3ccon3)n(Cc3ccccc3F)n2)ncc1NC(=O)OCc1ccccc1` [Compound I-125], in experiment [1], the “HEK WC Assay (fold increase at 30 μM in the presence of 10 μM SNP)” value is “F (F = 20 to <30 fold increase)”, the Emax at 10 µM was in the range of 80 to 100% and the Emax at 30 µM fell in the range of 80 to 100%. Besides, the Emax in experiment [1] (setting [5]) lay within 80 to 100%. Moreover, the Emax in experiment [1] (setting [6]) fell in the range of 80 to 100%. Moreover, the EC50 in experiment [1] (setting [7]) was < 20 µM. Also, the “sGC Enzyme (fold increase at 30 μM)” value in experiment [2] is “C (C = 5 to <10 fold increase)”. Also, the “HEK WC Assay (fold increase at 30 μM in the absence of SNP)” value in experiment [3] is listed as “D (D = 5 to <10 fold increase)”. Further, in experiment [4], the “sGC Enzyme (fold increase at 30 μM with SNP)” value is recorded as “D (D = 10 to <30 fold increase)”.
